# US12565485B2, “Solid forms of 1-((S)-4-((R)-7-(6-amino-4-methyl-3-(trifluoromethyl)pyridin-2-yl)-6-chloro-8-fluoro-2-(((s)-1-methylpyrrolidin-2-yl)methoxy)quinazolin-4-yl)-3-methylpiperazin-1-yl)prop-2-en-1-one” (Genentech, Inc., priority 2022, dated 2026)
# Experiments:
# Format in all cases: physicochemical
# Slow evaporation = conditions: Compound A, evaporation at RT
# Method: Slow evaporation. Slow evaporation experiments were performed under 10 conditions. Briefly, about 15˜20 mg of freebase starting material (810935-01-A) was dissolved in 0.5˜1.0 mL of solvent in a 3-mL glass vial.
# Slow evaporation Compound A. Slow evaporation experiments were performed under seven conditions.
# [1] = VH-XRPD analysis / transitions of forms at varying relative humidity; conditions: ambient humidity levels 40%
# From the text: FIG. 19. The sample then reverts to the original form upon reaching 30% RH. […] Transitions of Forms of Compound A at varying RH.
# Liquid vapor diffusion = conditions: Compound A, RT
# Method: (§1) Liquid vapor diffusion. Liquid vapor diffusion experiments were conducted in different solvent systems. […] This solution was then placed into a 20-mL vial with 3 mL of corresponding anti-solvent. The 20-mL vial was sealed with a cap and kept at RT allowing sufficient time for organic vapor to interact with the solution. The precipitates were isolated for XRPD analysis.
# as §1, with “diffusion Compound A.” for “diffusion.”
# [2] = Form change before and after drying (XRPD)
# Method: The wet sample was vacuum dried at RT for 3 hrs. […] A solid was obtained with a yield of 62.2%. […] (peak temperature). Based on the integrals in NMR spectrum, the stoichiometric ratio of adipic acid:freebase was determined to be 1.06. A peak of EtOAc was observed. Around 0.07 molar EtOAc (0.8 wt %) was detected, which was consistent with TGA weight loss.
# (peak), and one small endotherm at 158.8° C. […] Based on the integrals, the stoichiometric ratio of adipic acid:freebase was determined to be 1.65.
# (peak temperature). Based on the integrals, the stoichiometric ratio of adipic acid:freebase was determined to be 1.06. Peak of THF was observed. Around 0.17 molar THF (1.9 wt %) was detected, which was consistent with TGA weight loss.
# Compound B Form A was obtained from an acetone system and the sample was air dried at RT. […] (peak temperature) before the possible overlapped peak with peak temperature at 156.3° C. (FIG. 12). Based on the integrals, the stoichiometric ratio of fumaric acid:freebase was determined to be 1.03. A peak of acetone was observed and approximately 0.49 molar acetone (4.4 wt %) was detected. The HPLC purity of Compound B Form A was determined to be 93.56 area %. […] Around 0.39 molar acetone (3.5 wt %) was still detected. One endotherm at 58.7° C. and an overlapped peak with peak temperature at 157.1° C. were still observed on the sample obtained after heating. The first endotherm might be caused by re-adsorption of moisture. Since ˜3.5 wt % acetone was still detected from NMR, Compound B Form A is expected to be an acetone/H2O co-solvate.
# Compound C Form A was obtained from EtOAc system and the sample was air dried at RT. […] HPLC purity of Compound C Form A was determined to be 95.18 area %.
# Anti-solvent addition = conditions: Compound A
# Method: Anti-solvent addition. A total of 12 anti-solvent addition experiments were carried out. […] The obtained precipitate was isolated for XRPD analysis.
# Anti-solvent addition Compound A. A total of 14 anti-solvent addition experiments were carried out. […] The obtained precipitate was isolated for XRPD analysis.
# Slow cooling = conditions: Compound A, 50° C. to 5° C. at 0.1° C./min
# Method: Slow cooling Compound A. Slow cooling experiments were conducted in four solvent systems. […] The suspension was then heated to 50° C., equilibrated for about 2 hr and filtered to a new vial using a seal membrane (PTFE, pore size of 0.45 μm). Filtrates were slowly cooled down to 5° C. at a rate of 0.1° C./min. The obtained solids were kept isothermal at 5° C. before isolation for XRPD analysis.
# [3] = solvent DMSO, anti-solvent EtOAc
# [4] = solvent EtOH, anti-solvent MTBE
# [5] = solvent THF, anti-solvent n-Heptane
compound,measurement,setting,value
C=CC(=O)N1CCN(c2nc(OC[C@@H]3CCCN3C)nc3c(F)c(-c4nc(N)cc(C)c4C(F)(F)F)c(Cl)cc23)[C@@H](C)C1 [Compound A Form A],Result,Slow evaporation; 2-MeTHF,Gel
same,Result,Slow evaporation; Acetone,Gel
same,Result,Slow evaporation; DCM,Gel
same,Result,Slow evaporation; EtOH,Gel
same,Result,Slow evaporation; H2O,Clear solution
same,Result,Slow evaporation; MeOH,Gel
same,Result,Slow evaporation; THF,Gel
same,Form after exposure to ambient humidity,[1],Compound A Form D was formed
same,Result,Liquid vapor diffusion; [3],Clear solution
same,Result,Liquid vapor diffusion; [4],Gel
same,Result,"Liquid vapor diffusion; solvent EtOH, anti-solvent n-Pentane",Gel
same,Result,"Liquid vapor diffusion; solvent H2O, anti-solvent ACN",Gel
same,Result,"Liquid vapor diffusion; solvent H2O, anti-solvent IPA",Gel
same,Result,"Liquid vapor diffusion; solvent THF, anti-solvent MTBE",Gel
same,Result,Liquid vapor diffusion; [5],Amorphous
same,Form change before and after drying,[2]; air dried at RT,No form change was observed
same,Form change before and after drying,[2]; vacuum dried at RT for 3 hrs,No form change was observed
same,Result,"Anti-solvent addition; solvent 2-MeTHF, anti-solvent n-Heptane",Gel
same,Result,"Anti-solvent addition; solvent DCM, anti-solvent MTBE",Compound A Form A
same,Result,"Anti-solvent addition; solvent DCM, anti-solvent Toluene",Compound A Form B
same,Result,"Anti-solvent addition; solvent DCM, anti-solvent n-Heptane",Compound A Form A
same,Result,Anti-solvent addition; [3],Clear
same,Result,"Anti-solvent addition; solvent EtOH, anti-solvent Anisole",Clear solution
same,Result,Anti-solvent addition; [4],Gel
same,Result,"Anti-solvent addition; solvent EtOH, anti-solvent n-Heptane",Compound A Form A
same,Result,"Anti-solvent addition; solvent MeOH, anti-solvent MTBE",Gel
same,Result,"Anti-solvent addition; solvent MeOH, anti-solvent Toluene",Compound A Form A
same,Result,"Anti-solvent addition; solvent THF, anti-solvent EtOAc",Compound A Form A
same,Result,"Anti-solvent addition; solvent THF, anti-solvent MTBE",Compound A Form A
same,Result,"Anti-solvent addition; solvent THF, anti-solvent Toluene",Compound A Form A
same,Result,Anti-solvent addition; [5],Compound A Form A
same,Result,Slow cooling; ACN,Compound A Form A
same,Result,Slow cooling; Acetone,Compound A Form A
same,Result,Slow cooling; IPA,Compound A Form A
same,Result,Slow cooling; MEK,Compound A Form A
